Measured values: the supplement of paper PMC13380429

Key:
Conditions in all cases: 72 h
[1] = tested on: Caco-2; assay: cell viability relative to DMSO; higher = less toxic
[2] = tested on: Calu-3; assay: as above
[3] = tested on: HepG2; assay: as above
[4] = tested on: U2OS; assay: as above
[5] = tested on: Vero E6; assay: as above
[6] = tested on: Caco-2; assay: relative viability EC50 (midpoint between 100% and the lowest measured viability); higher = less toxic
[7] = tested on: Calu-3; assay: as above
[8] = tested on: HepG2; assay: as above
[9] = tested on: U2OS; assay: as above
[10] = tested on: Vero E6; assay: as above
[11] = tested on: Caco-2; assay: drug sensitivity score (DSS) for viability; higher = more toxic; extreme values may be limits of the assay
[12] = tested on: Calu-3; assay: as above
[13] = tested on: HepG2; assay: as above
[14] = tested on: U2OS; assay: as above
[15] = tested on: Vero E6; assay: as above

| SMILES | cell viability ([1]; 1 nM) [%] | cell viability ([1]; 10 nM) [%] | cell viability ([1]; 100 nM) [%] | cell viability ([1]; 1000 nM) [%] | cell viability ([1]; 10000 nM) [%] | cell viability ([2]; 1 nM) [%] | cell viability ([2]; 10 nM) [%] | cell viability ([2]; 100 nM) [%] | cell viability ([2]; 1000 nM) [%] | cell viability ([2]; 10000 nM) [%] | cell viability ([3]; 1 nM) [%] | cell viability ([3]; 10 nM) [%] | cell viability ([3]; 100 nM) [%] | cell viability ([3]; 1000 nM) [%] | cell viability ([3]; 10000 nM) [%] | cell viability ([4]; 1 nM) [%] | cell viability ([4]; 10 nM) [%] | cell viability ([4]; 100 nM) [%] | cell viability ([4]; 1000 nM) [%] | cell viability ([4]; 10000 nM) [%] | cell viability ([5]; 1 nM) [%] | cell viability ([5]; 10 nM) [%] | cell viability ([5]; 100 nM) [%] | cell viability ([5]; 1000 nM) [%] | cell viability ([5]; 10000 nM) [%] | relative viability EC50 [6] [µM] | relative viability EC50 [7] [µM] | relative viability EC50 [8] [µM] | relative viability EC50 [9] [µM] | relative viability EC50 [10] [µM] | drug sensitivity score [11] | drug sensitivity score [12] | drug sensitivity score [13] | drug sensitivity score [14] | drug sensitivity score [15] |
| --- | --- | --- | --- | --- | --- | --- | --- | --- | --- | --- | --- | --- | --- | --- | --- | --- | --- | --- | --- | --- | --- | --- | --- | --- | --- | --- | --- | --- | --- | --- | --- | --- | --- | --- | --- |
| NC(=O)[C@@H](CCC(F)(F)F)N(Cc1ccc(-c2ncon2)cc1F)S(=O)(=O)c1ccc(Cl)cc1 [avagacestat] | 103 | 99.9 | 95.9 | 93.2 | 77.1 | 96.2 | 105 | 106 | 95.2 | 105 | 96.6 | 102 | 94.9 | 105 | 87.9 | 99.1 | 94.9 | 102 | 93.1 | 96.5 | 107 | 110 | 106 | 109 | 99.2 | > 10 | > 10 | > 10 | > 10 | > 10 | 1.4 | 0 | 0 | 0 | 0 |
| O=C(c1cc2ccccc2o1)N1CCN(Cc2ccccc2)CC1 [befuraline] | 85 | 91 | 88.8 | 99.2 | 84.4 | 94.1 | 97.8 | 100 | 93.8 | 90.7 | 102 | 97 | 101 | 94.1 | 102 | 95.8 | 97.6 | 95.1 | 98 | 94.6 | 113 | 97.2 | 106 | 103 | 96.7 | > 10 | > 10 | > 10 | > 10 | > 10 | 0 | 0 | 0 | 0 | 0 |
| O=S(=O)(N[C@H](CO)C(C(F)(F)F)C(F)(F)F)c1ccc(Cl)s1 [begacestat] | 118 | 102 | 99.8 | 96.1 | 109 | 99.4 | 102 | 108 | 104 | 96.7 | 99.1 | 106 | 88 | 96.5 | 96.6 | 100 | 94.2 | 102 | 89.7 | 93.6 | 99.6 | 101 | 105 | 95.7 | 84.6 | > 10 | > 10 | > 10 | > 10 | > 10 | 0 | 0 | 0 | 0 | 0.7 |
| CCOC(=O)[C@H](CCc1ccccc1)N[C@H]1CCc2ccccc2N(CC(=O)O)C1=O [benazepril] | 99.1 | 90.8 | 106 | 101 | 94.6 | 94.9 | 97.5 | 111 | 97.8 | 108 | 112 | 101 | 95.4 | 104 | 96.9 | 99.1 | 94 | 102 | 93.8 | 93.4 | 103 | 104 | 96.1 | 109 | 99.2 | > 10 | > 10 | > 10 | > 10 | > 10 | 0 | 0 | 0 | 0 | 0 |
| CC(O)CC(=O)O (stereo not drawn) [beta-hydroxybutyrate] | 114 | 99.4 | 122 | 104 | 103 | 99.2 | 106 | 100 | 96.9 | 94.5 | 90.5 | 96.2 | 101 | 99.7 | 99 | 94.6 | 95.1 | 99.3 | 97.8 | 101 | 97.6 | 95.3 | 93.3 | 97.1 | 114 | > 10 | > 10 | > 10 | > 10 | > 10 | 0 | 0 | 0 | 0 | 0 |
| CCN(CC)c1ccc(C(=C2C=CC(=[N+](CC)CC)C=C2)c2ccccc2)cc1 [brilliant-green] | 92.4 | 92.5 | 69.4 | 0.4 | -0.3 | 94.6 | 101 | 72.4 | 16.2 | 0 | 109 | 97.7 | 58.8 | 5.2 | -0.3 | 93.6 | 95.5 | 47.8 | 0.8 | -0.2 | 96.5 | 97.8 | 94.2 | 6.8 | -0.2 | 0.148 | 0.235 | 0.128 | 0.0933 | 0.328 | 21.9 | 18.7 | 22.3 | 24.1 | 17.7 |
| O=[N+]([O-])C(Br)(CO)CO [bronopol] | 95.2 | 95.2 | 96.5 | 98.7 | 113 | 110 | 98.6 | 91.6 | 103 | 105 | 112 | 108 | 107 | 93.3 | 108 | 95.5 | 102 | 95.7 | 101 | 102 | 105 | 84.2 | 106 | 90.6 | 99 | > 10 | > 10 | > 10 | > 10 | > 10 | 0 | 0 | 0 | 0 | 0 |
| CCN(CC)CCOCCOC(=O)C1(c2ccccc2)CCCC1 [carbetapentane] | 97.9 | 94.3 | 94.3 | 105 | 91.1 | 90.6 | 93.8 | 104 | 97.6 | 100 | 104 | 103 | 97.2 | 97.5 | 94.4 | 99.4 | 102 | 99.5 | 101 | 95.5 | 103 | 93.9 | 108 | 104 | 97.6 | > 10 | > 10 | > 10 | > 10 | > 10 | 0 | 0 | 0 | 0 | 0 |
| CCCCCCCCCCCCCCCC(=O)OC[C@@H](NC(=O)C(Cl)Cl)[C@H](O)c1ccc([N+](=O)[O-])cc1 [chloramphenicol-palmitate] | 111 | 102 | 99 | 95.1 | 95.3 | 97.3 | 95.6 | 95.2 | 97 | 102 | 98.1 | 101 | 103 | 92.4 | 88.6 | 105 | 99.6 | 102 | 104 | 100 | 107 | 107 | 102 | 97.2 | 99.3 | > 10 | > 10 | > 10 | > 10 | > 10 | 0 | 0 | 0.2 | 0 | 0 |
| COc1ccc(C(Cl)=C(c2ccc(OC)cc2)c2ccc(OC)cc2)cc1 [chlorotrianisene] | 98.5 | 97.5 | 98 | 104 | 102 | 98.5 | 95.9 | 104 | 83.6 | 99.9 | 98.5 | 94.9 | 93.6 | 111 | 101 | 95.5 | 97.8 | 101 | 102 | 93.6 | 93.8 | 103 | 91.8 | 99.5 | 106 | > 10 | > 10 | > 10 | > 10 | > 10 | 0 | 0 | 0 | 0 | 0 |
| c1ccc(C2CC2)c(OCC2=NCCN2)c1 [cirazoline] | 97.1 | 95 | 102 | 90.4 | 113 | 108 | 97.2 | 99.3 | 107 | 98.6 | 95.5 | 97.6 | 94.8 | 107 | 110 | 94.2 | 95.7 | 99.5 | 97.6 | 98.1 | 93.7 | 97.2 | 95.8 | 106 | 107 | > 10 | > 10 | > 10 | > 10 | > 10 | 0 | 0 | 0 | 0 | 0 |
| O=P(O)(O)C(Cl)(Cl)P(=O)(O)O [clodronic-acid] | 98 | 103 | 96.3 | 100 | 100 | 94.3 | 97.1 | 96.5 | 96.1 | 109 | 99.2 | 96.6 | 98.6 | 101 | 102 | 99.4 | 102 | 105 | 101 | 103 | 108 | 103 | 97.7 | 101 | 99.1 | > 10 | > 10 | > 10 | > 10 | > 10 | 0 | 0 | 0 | 0 | 0 |
| Cc1cc(C(C#N)c2ccc(Cl)cc2)c(Cl)cc1NC(=O)c1cc(I)cc(I)c1O (stereo not given) [closantel] | 97.4 | 99.6 | 99.8 | 97.5 | 100 | 90.9 | 95.5 | 92.3 | 92.4 | 95.3 | 95 | 95.5 | 102 | 86.4 | 107 | 93.3 | 96.7 | 97.4 | 98.8 | 104 | 101 | 98.2 | 96.2 | 93.7 | 101 | > 10 | > 10 | > 10 | > 10 | > 10 | 0 | 0 | 0 | 0 | 0 |
| CC1CC(OC(=O)C(O)c2ccccc2)CC(C)(C)C1 (stereo not given) [cyclandelate] | 91.5 | 105 | 94.3 | 105 | 108 | 95.9 | 90.2 | 102 | 95.5 | 99 | 103 | 91.9 | 100 | 96.3 | 98.3 | 97.2 | 103 | 97.5 | 102 | 97.5 | 97.8 | 99.1 | 100 | 96.7 | 94.9 | > 10 | > 10 | > 10 | > 10 | > 10 | 0 | 0 | 0 | 0 | 0 |
